In ChEMBL document CHEMBL1150136, “Limnazine, the first bacterial azine derivative from Bacillus sp. GW90a” (J Nat Prod, 2002):
The source made the active and inactive calls.

Tests used:
Type in all cases: functional, organism-based
Escherichia coli = test: Antibacterial activity against Escherichia coli up to 100 ug/mL by agar diffusion test
Staphylococcus aureus = test: Antibacterial activity against Staphylococcus aureus by agar diffusion test
Bacillus subtilis = test: Antibacterial activity against Bacillus subtilis up to 100 ug/mL by agar diffusion test
Rhizomucor miehei = test: Antifungal activity against Mucor miehei by agar diffusion test
Chlorella vulgaris = test: Antialgal activity against Chlorella vulgaris up to 100 ug/mL by agar diffusion test
Chlorella salina = test: Antialgal activity against Chlorella salina by agar diffusion test
Chlorella sorokiniana = test: Antialgal activity against Chlorella sorokiniana by agar diffusion test

Measured: Activity

Cc1ccc2c(c1)/C(=N\N=C1/CC(C)(C)Oc3ccc(C)cc31)CC(C)(C)O2
inactive: Escherichia coli | Staphylococcus aureus | Bacillus subtilis | Rhizomucor miehei | Chlorella vulgaris | Chlorella salina | Chlorella sorokiniana
